Results as given in patent US4329347A, “Cardiotonic and antithrombotic sulfur-containing derivatives of carbostyril” (Boehringer Ingelheim GmbH, priority 1978, dated 1982).
pEC50, pIC50: −log10 of the molar value. Like-named read-outs stand apart in the source and are kept apart here.

How the values were obtained:
[1] = test system: mice; experiment: Acute toxicity, oral; type: in vivo; conditions: single oral dose of 1,000 mg/kg, 14 days observation
Procedure: (§1) The acute toxicity of the test compounds was determined on groups of 10 mice each after oral administration of a single dose of 1,000 mg/kg (observation time: 14 days).

[2] = Acute toxicity, oral; type: in vivo; conditions: mouse, in vivo; mice, single oral dose, 14 days observation; read-out: Acute Toxicity per os
Procedure: as §1

[3] = test system: Platelet Thromboses in the Rat; experiment: Influence on platelet thromboses in the rat (electrical irritation of a vein); type: in vivo; conditions: male rats, five animals per dose, 20 minutes observation, vs. untreated group; dose not given
Procedure: Literature: H. Poliwoda, J. Lilli, G. Hagemann, D. Schyma: Z. ges. exp. Med., 145, 252 (1968)
Male rats (body weight between 70 and 90 grams) received an intraperitoneal Nembutal anesthesia (dose: 50 to 60 mg/kg). To avoid hypothermia, they were positioned on a heated test table (about 37° C.). The respiratory passage was held free by insertion of a tracheal cannula.
After a transverse abdominal incision was made, an intestinal loop was exposed and fixed, and a vein, with a diameter of about 300 μ was prepared. A monopolar platinum electrode embedded in glass and having a tip diameter of about 100μ was applied to the vein as an irritating cathode. The indifferent electrode was applied to the same vessel opposite the cathode. The irritation was provoked by 150 volts of direct current for a period of 100 milliseconds. After the irritation, the area of observation was continuously rinsed with warm (37° C.) physiological salt solution.
The formation and growth of the thrombosis was followed under a binocular microscope over a time period of 20 minutes. During the entire period of observation, the percentage of the vessel volume closed by the thrombosis was estimated at different time intervals.
Five animals per dose were used, and the results were averaged.
In the test compound experiments, the average size of the thrombosis in the treated animal group was compared with that of an untreated animal group. The result was given as "percentage reduction of the average thrombosis size." The following table contains the values obtained.

[4] = test system: thrombocyte aggregation in platelet-rich plasma of healthy human donors; experiment: Thrombocyte aggregation inhibiting activity by the method of Born and Cross (platelet-rich plasma); type: cell-based; conditions: optical density
Procedure: 1. Determination of the thrombocyte aggregation inhibiting activity by the method of Born and Cross [J. Physiol. 170, 397 (1964)]:
The thrombocyte aggregation was measured in the platelet-rich plasma of healthy human donors. The decrease in optical density was measured and recorded photometrically after the addition of adenosine diphosphate or collagen. From the angle of inclination of the density curve, the rate of aggregation was estimated (Vmax). The optical density was taken as the point on the curve where the most light was transmitted (O.D.).
The EC50 values in the tables indicate the optical density.
Small doses of collagen were chosen, but sufficient to give irreversible aggregation. To provoke maximum aggregation, about 0.01 ml of the collagen solution was added to 1 ml of platelet-rich plasma. (Commercial collagen of Hormonchemie, Munich). The adenosine diphosphate (ADP) doses were chosen to give only the first phase of the BORN curve. The necessary amount of ADP was about 1×10^-6 mol/l. Commercial ADP of Boehringer Mannheim was used.
The substance dose which produced a 50% inhibition of the thrombozytes aggregation (EC50) was determined graphically.

[5] = test system: phosphodiesterase (PDE), supernatant of human blood platelets; experiment: PDE inhibition (3H-cAMP hydrolysis); type: biochemical; conditions: human blood platelet PDE, 1 μmol/liter 3H-cAMP, pH 7.4, 15 minutes, 37° C.
Procedure: cAMP is hydrolysed to AMP by phosphodiesterase (PDE) from various sources, including blood platelets. This hydrolysis is inhibited by PDE inhibitors according to the concentration.
The phosphodiesterase used was the 10,000×g supernatant of human blood platelets which had been frozen with water and thawed out again.
An amount of 0.3 ml of a mixture which contained 0.1 mole/liter of trihydroxy-aminomethane (pH 7.4), 3 mmole/liter of magnesium chloride, 1 mmole/liter of AMP, 1 μmol/liter of ^3 H-cAMP (specific activity about 10 MBq/μmol), PDE as well as the substance to be tested and water for the control were incubated for 15 minutes at 37° C.
The incubation was stopped by the addition of 0.5 ml of zinc sulfate (0.266 mole/liter) and 0.5 ml of barium hydroxide (0.266 mole/liter), the precipitate was centrifuged and the activity remaining in the supernatant of the unreacted ^3 H-cAMP was determined. From a comparison of the substance preparations and the control preparations, the concentration for a 50% inhibiting activity (IC50) of the respective substance was calculated.

[6] = test system: conscious mice; experiment: Prolongation of the bleeding time (mouse tail); type: in vivo; conditions: po, 10 mg/kg orally, after 1 hour, compared to control group, read-out: Prolongation of the bleeding time in % after one hour
Procedure: The function of the thrombocytes can be determined by measuring the bleeding time. The normal bleeding time in human beings is in the range of 1 to 3 minutes and needs intact thrombozytes in a sufficient number. If the number of thrombocytes is normal and the bleeding time is prolonged, this signifies a disturbed function of the thrombocytes. This is found in some congenital defects of thrombocyte function (V. Willebrand's disease, for example). If, on the other hand it is the aim to prevent spontaneous aggregation of the thrombocytes and occlusion in the arterial system by antithrombotic drugs, the bleeding time should be prolonged as a consequence. Therefore, using antithrombotic substances, a prolongation of the bleeding time is expected. If the plasma coagulation system is not influenced by such a medicine, coagulation tests will give a normal result.
To measure the bleeding time, 10 mg/kg of the test compound is administered orally to conscious mice. After 1 hour, 0.5 mm of the tip of the mousetail is cut off and droplets of blood are gently removed with filter paper every 30 second. The number of drops of blood give a measure for the bleeding time (5 animals/experiment).
The numbers in the following table represent the prolongation in % compared to the control group.

[7] = test system: auricles (rat heart); experiment: Positive inotropic activity on isolated rat auricles; parameters: species or system rats; conditions: 1×10^-5 gm/ml, 30° C., from the starting values, read-out: % Increase in Force of Contraction
Procedure: Rats were anesthetized with ether and subsequently killed by a blow on the neck. After opening the thorax, the heart was removed and both auricles were separated. The auricles were put into an organ bath of 100 ml containing a tyrode solution at a temperature of 30° C. The tyrode solution was infused with carbogen (95% of O2 and 5% of CO2). The spontaneous contractions of the auricles were registered isometrically. The auricles were weighted with 1 gm. The compounds in question were tested on 4 auricles each at 1×10^-5 gm/ml. The alteration of the contraction force was registered in % from the starting values.

[8] = test system: Walker-256 carcinosarcoma cells; experiment: Effect on tumor cell embolism: mortality after injection of Walker-256 carcinosarcoma cells in mice; type: in vivo
Procedure: (a) Mice having a body weight of about 25 grams received an injection in the jugular vein of a million Walker-256 carcinosarcoma cells. These tumor cells lead to a formation of thrombocyte clumps, which causes a fatal tumor cell embolism in a portion of the animals. Under the influence of the test compounds, the number of deceased animals can be reduced. Normally, about 65% of the control animals died within 10 minutes as a result of pulmonary embolism.

[9] = test system: thrombocytes (number in the blood after tumor cell injection); experiment: Effect on tumor cell embolism: thrombocyte decrease after intravenous tumor cell injection in rats; type: in vivo; conditions: control 70
Source text: (b) By virtue of the injection of tumor cells, a strong decrease in the number of thrombocytes in the blood was produced in the test animals (rats) as a consequence of thrombocyte and tumor cell thrombocyte aggregation. […] By administration of suitable substances, the extent of the thrombocyte decrease can be reduced as compared to that of the untreated control animals.

[10] = ADP-induced (about 1×10^-6 mol/l), read-out: EC50 (50% inhibition of thrombocyte aggregation), ADP
[11] = collagen-induced, read-out: EC50 (50% inhibition of thrombocyte aggregation), Collagen

## Cc1cc(=O)[nH]c2ccc(OCCCC[S+]([O-])c3ccccc3)cc12 (stereo not shown) [Q, 4-Methyl-6-(4-phenylsulfinyl-butoxy)-carbostyril]
[1]
  animals died (acute toxicity per os): 0 out of 10 animals
[2]
  LD50 at 336 h: > 1000 mg/kg
[3]
  Percentage Reduction of the Average Thrombosis Size: 22%
[4]; [10]
  pEC50: 4.40
[4]; [11]
  pEC50: 5.44
[5]
  pIC50: 6.19
[6]
  change in vivo at 10 mg/kg: 39%
[7]
  activation at 10 µg/mL: 58%

## O=C1CCc2cc(OCCCC[S+]([O-])c3ccc(Cl)cc3)ccc2N1 (stereo not shown) [I, 6-[4-(4-Chlorophenyl-sulfinyl)-butoxy]-3,4-dihydro-carbostyril]
[1]
  animals died (acute toxicity per os): 0 out of 10 animals
[2]
  LD50 at 336 h: > 1000 mg/kg
[3]
  Percentage Reduction of the Average Thrombosis Size: 4%
[4]; [10]
  pEC50: 5.00
[4]; [11]
  pEC50: 5.40
[5]
  pIC50: 6.10
[6]
  change in vivo at 10 mg/kg: > 300%
[7]
  activation at 10 µg/mL: 52%

## O=C1CCc2cc(OCCCC[S+]([O-])c3ccccn3)ccc2N1 (stereo not shown) [E, 6-[4-(2-Pyridyl-sulfinyl)-butoxy]-3,4-dihydro-carbostyril]
[1]
  animals died (acute toxicity per os): 0 out of 10 animals
[2]
  LD50 at 336 h: > 1000 mg/kg
[3]
  Percentage Reduction of the Average Thrombosis Size: 16%
[4]; [10]
  pEC50: 4.60
[4]; [11]
  pEC50: 5.19
[5]
  pIC50: 5.41
[6]
  change in vivo at 10 mg/kg: 152%
[7]
  activation at 10 µg/mL: 16%

## O=c1ccc2cc(OCCCCS(=O)(=O)c3ccccn3)ccc2[nH]1 [T, 6-[4-(2-Pyridyl-sulfonyl)-butoxy]-carbostyril]
[8]; 2 mg/kg p.o.
  Percentage of Deceased Animals: 23%
[8]; 6 mg/kg p.o.
  Percentage of Deceased Animals: 6.7%
[1]
  animals died (acute toxicity per os): 0 out of 10 animals
[2]
  LD50 at 336 h: > 1000 mg/kg
[3]
  Percentage Reduction of the Average Thrombosis Size: 29%
[4]; [10]
  pEC50: 5.22
[4]; [11]
  pEC50: 7.00
[5]
  pIC50: 6.00
[9]; dose 2 mg/kg
  % Reduction of the Number of Thrombocytes: 29%
[9]; dose 4 mg/kg
  % Reduction of the Number of Thrombocytes: 15%
[9]; dose 8 mg/kg
  % Reduction of the Number of Thrombocytes: 1.1%
[6]
  change in vivo at 10 mg/kg: 5%
[7]
  activation at 10 µg/mL: 32%

## COc1ccccc1[S+]([O-])CCCCOc1ccc2c(c1)CCC(=O)N2 (stereo not shown) [M, 6-[4-(2-Methoxyphenyl-sulfinyl)-butoxy]-3,4-dihydro-carbostyril]
[1]
  animals died (acute toxicity per os): 0 out of 10 animals
[2]
  LD50 at 336 h: > 1000 mg/kg
[4]; [10]
  pEC50: 4.66
[4]; [11]
  pEC50: 5.40
[5]
  pIC50: 6.82
[6]
  change in vivo at 10 mg/kg: 27%
[7]
  activation at 10 µg/mL: 65%

## O=C1CCc2cc(OCCCC[S+]([O-])c3ccccc3)ccc2N1 (stereo not shown) [B, 6-(4-Phenylsulfinyl-butoxy)-3,4-dihydro-carbostyril]
[1]
  animals died (acute toxicity per os): 0 out of 10 animals
[2]
  LD50 at 336 h: > 1000 mg/kg
[3]
  Percentage Reduction of the Average Thrombosis Size: 23%
[4]; [10]
  pEC50: 4.70
[4]; [11]
  pEC50: 5.40
[5]
  pIC50: 5.72
[6]
  change in vivo at 10 mg/kg: 102%
[7]
  activation at 10 µg/mL: 30%

## O=C1CCc2cc(OCCCC[S+]([O-])c3ccc(Cl)c(Cl)c3)ccc2N1 (stereo not shown) [U, 6-[4-(3,4-Dichlorophenyl-sulfinyl)-butoxy]-3,4-dihydro-carbostyril]
[8]; 2 mg/kg p.o.
  Percentage of Deceased Animals: 40%
[8]; 6 mg/kg p.o.
  Percentage of Deceased Animals: 13%
[1]
  animals died (acute toxicity per os): 0 out of 10 animals
[2]
  LD50 at 336 h: > 1000 mg/kg
[3]
  Percentage Reduction of the Average Thrombosis Size: 32%
[4]; [10]
  pEC50: 4.82
[4]; [11]
  pEC50: 5.40
[5]
  pIC50: 6.57
[9]; dose 2 mg/kg
  % Reduction of the Number of Thrombocytes: 34%
[9]; dose 6 mg/kg
  % Reduction of the Number of Thrombocytes: 20.8%
[9]; dose 18 mg/kg
  % Reduction of the Number of Thrombocytes: 1.1%
[6]
  change in vivo at 10 mg/kg: 33%
